According to patent US7084154B2, “2-(aminomethyl) arylamide analgesics” (Pharmacopeia Drug Disclovery, Inc., priority 2003, dated 2006):

System: male mice (strain ICR)
Experiment: Formalin paw licking test in mice
Assay type: in vivo
Settings: 10 mg/kg i.v. in saline, 15 minutes before sub-plantar 3% formalin; compared to vehicle control
Protocol: The activity of the compounds in the in vitro screen was confirmed in vivo. Compound 103 was dissolved in saline and administrated to male mice (strain ICR) at 10 mg/kg i.v. in the tail vein. After 15 minutes, a 3% solution of formalin was administered sub-plantar and the time spent licking the paw was monitored in 5 minute segments over a 45 minute period. The experiment was conducted on 1–6 mice per group and compared to a control set (5 mice), which were given the vehicle alone prior to formalin injection. The first phase response was reduced by approximately 50%. The person of skill in the art would accept this test as predictive of therapeutic utility for analgesia.

CC1c2cc(O)ccc2CCN1Cc1ccccc1C(=O)NCC/C=C/c1ccccc1 (stereo not shown) [Compound 103, 2-(7-hydroxy-1-methyl-3,4-dihydro-1H-isoquinolin-2-ylmethyl)-N-(4-phenyl-but-3-enyl)-benzamide]
reduction of first phase response (time spent licking the paw): approximately 50%
